Assay results from ChEMBL document CHEMBL3856191, “Structural modifications at the 6-position of thieno[2,3-d]pyrimidines and their effects on potency at FLT3 for treatment of acute myeloid leukemia” (Eur J Med Chem, 2016).

Columns and labels:
[1] = molecular target: Tyrosine-protein kinase ZAP-70 (Homo sapiens) (UniProt P43403); assay: Inhibition of recombinant human ZAP-70 expressed in insect Sf21 cells assessed as remaining activity at 10 uM preincubated for 15 mins followed by poly(Glu:Tyr) substrate addition for 30 mins in presence of [gamma-32P]ATP by […] assay
[2] = molecular target: Fibroblast growth factor receptor 1 (Homo sapiens) (UniProt P11362); assay: Inhibition of recombinant human FGFR1 expressed in insect Sf21 cells assessed as remaining activity at 10 uM preincubated for 15 mins followed by poly(Glu:Tyr) substrate addition for 30 mins in presence of [gamma-32P]ATP by […] assay
[3] = test system: Tyrosine-protein kinase ABL1 (Homo sapiens), P00519 [T315I]; assay: Inhibition of human ABL T315I mutant assessed as remaining activity at 10 uM preincubated for 15 mins followed by poly(Glu:Tyr) substrate addition for 30 mins in presence of [gamma-32P]ATP by […] assay
Angiopoietin-1 receptor = Angiopoietin-1 receptor (Homo sapiens, UniProt Q02763); assay: Inhibition of human TIE2 assessed as remaining activity at 10 uM preincubated for 15 mins followed by substrate addition measured after 30 mins in presence of [gamma-32P]ATP by […] assay
Sequence of Angiopoietin-1 receptor (Q02763 whole entry): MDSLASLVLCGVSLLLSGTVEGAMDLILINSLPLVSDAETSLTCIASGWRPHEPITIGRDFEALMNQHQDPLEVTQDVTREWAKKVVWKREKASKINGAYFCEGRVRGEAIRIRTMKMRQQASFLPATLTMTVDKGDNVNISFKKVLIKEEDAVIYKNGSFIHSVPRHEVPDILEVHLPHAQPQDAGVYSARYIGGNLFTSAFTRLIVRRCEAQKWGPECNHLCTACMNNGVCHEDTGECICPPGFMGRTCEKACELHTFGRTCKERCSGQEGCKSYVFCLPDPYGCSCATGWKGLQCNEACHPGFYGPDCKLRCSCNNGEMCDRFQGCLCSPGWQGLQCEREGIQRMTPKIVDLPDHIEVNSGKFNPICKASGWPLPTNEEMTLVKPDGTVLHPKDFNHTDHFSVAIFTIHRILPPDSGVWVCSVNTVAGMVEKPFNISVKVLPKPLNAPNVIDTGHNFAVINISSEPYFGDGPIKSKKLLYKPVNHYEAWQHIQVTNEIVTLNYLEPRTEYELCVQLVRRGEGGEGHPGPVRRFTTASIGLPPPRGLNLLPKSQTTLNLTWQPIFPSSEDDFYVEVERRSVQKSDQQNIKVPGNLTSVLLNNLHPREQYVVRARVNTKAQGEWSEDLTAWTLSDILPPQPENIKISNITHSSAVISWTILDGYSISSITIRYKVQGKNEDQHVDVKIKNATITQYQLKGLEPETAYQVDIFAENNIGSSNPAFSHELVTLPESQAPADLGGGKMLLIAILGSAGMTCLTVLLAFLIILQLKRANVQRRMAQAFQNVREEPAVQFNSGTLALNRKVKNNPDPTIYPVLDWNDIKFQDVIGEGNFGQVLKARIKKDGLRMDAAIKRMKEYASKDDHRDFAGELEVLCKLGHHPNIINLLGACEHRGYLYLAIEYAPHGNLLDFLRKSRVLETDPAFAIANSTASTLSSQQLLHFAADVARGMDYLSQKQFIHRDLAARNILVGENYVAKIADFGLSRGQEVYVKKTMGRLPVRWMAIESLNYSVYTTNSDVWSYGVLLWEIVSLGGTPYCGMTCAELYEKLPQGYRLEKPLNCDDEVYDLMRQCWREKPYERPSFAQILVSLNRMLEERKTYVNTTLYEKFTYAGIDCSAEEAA

[4] = molecular target: Tyrosine-protein kinase ABL2 (Homo sapiens) (UniProt P42684); assay: Inhibition of human recombinant ARG expressed in sf21 cells assessed as remaining activity at 10 uM preincubated for 15 mins followed by Poly(Glu:Tyr) addition measured after 30 mins in presence of [gamma-32P]ATP by […] assay
[5] = molecular target: PI3K p110 beta/p85 alpha (Homo sapiens) (UniProt P27986+P42338); assay: Inhibition of PI3K p110beta/p85alpha (unknown origin) assessed as remaining activity at 10 uM in presence of [gamma-32P]ATP by […] assay; format: protein-complex assay
[6] = molecular target: Platelet-derived growth factor receptor alpha (Homo sapiens) (UniProt P16234); assay: Inhibition of recombinant human PDGFR-alpha expressed in insect Sf21 cells assessed as remaining activity at 10 uM preincubated for 15 mins followed by poly(Glu:Tyr) substrate addition for 30 mins in presence of [gamma-32P]ATP by […] assay
[7] = molecular target: Mast/stem cell growth factor receptor Kit (Homo sapiens) (UniProt P10721); assay: Inhibition of recombinant human c-Kit expressed in insect High-5 cells assessed as remaining activity at 10 uM preincubated for 15 mins followed by poly(Glu:Tyr) substrate addition for 30 mins in presence of [gamma-32P]ATP by […] assay; conditions: BTI-TN-5B1-4
[8] = molecular target: Mitogen-activated protein kinase 8 (Homo sapiens) (UniProt P45983); assay: Inhibition of recombinant human JNK1alpha1 expressed in insect Sf21 cells assessed as remaining activity at 10 uM preincubated for 15 mins followed by ATF2 substrate addition for 30 mins in presence of [gamma-32P]ATP by […] assay
Sequence of Mitogen-activated protein kinase 8 (Homo sapiens) (P45983 whole entry): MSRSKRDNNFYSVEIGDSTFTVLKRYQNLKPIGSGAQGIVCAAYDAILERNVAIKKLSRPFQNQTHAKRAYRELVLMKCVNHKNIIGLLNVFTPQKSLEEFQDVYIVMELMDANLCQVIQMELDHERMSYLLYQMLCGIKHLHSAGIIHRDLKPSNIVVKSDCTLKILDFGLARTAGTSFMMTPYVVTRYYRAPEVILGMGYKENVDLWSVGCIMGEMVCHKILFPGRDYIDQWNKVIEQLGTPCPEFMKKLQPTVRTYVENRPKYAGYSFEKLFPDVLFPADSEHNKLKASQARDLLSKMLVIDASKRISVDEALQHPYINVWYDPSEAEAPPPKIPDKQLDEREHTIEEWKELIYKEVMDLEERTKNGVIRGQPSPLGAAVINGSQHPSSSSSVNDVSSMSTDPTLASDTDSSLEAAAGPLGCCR

[9] = molecular target: Aurora kinase B (Homo sapiens) (UniProt Q96GD4); assay: Inhibition of human AURORA B assessed as remaining activity at 10 uM preincubated for 15 mins followed by substrate addition for 30 mins in presence of [gamma-32P]ATP by […] assay
[10] = Metabolic stability in rat liver microsomes assessed as compound remaining at 1 uM after 30 mins in presence of NADPH by HPLC-MS analysis; format: ADME; conditions: liver microsomes, read-out: Stability
[11] = Volume of distribution at steady state in Sprague-Dawley rat at 5 mg/kg, iv up to 24 hrs by LC/MS/MS analysis; format: ADME, organism-based; conditions: in vivo, read-out: Vdss
[12] = molecular target: Receptor-type tyrosine-protein kinase FLT3 (Homo sapiens, UniProt P36888, D835Y)
Description: Inhibition of human FLT3 D835Y mutant preincubated for 15 mins followed by poly(Glu:Tyr) substrate addition for 30 mins in presence of [gamma-32P]ATP by TR-FRET assay

[13] = AUC (0 to infinity) in Sprague-Dawley rat at 30 mg/kg, up to 24 hrs by LC/MS/MS analysis; format: ADME, organism-based; set-up: dose 30 mg/kg, time infinity; conditions: in vivo
[14] = molecular target: Aurora kinase A (Homo sapiens) (UniProt O14965); assay: Inhibition of recombinant human AURORA A expressed in insect Sf21 cells assessed as remaining activity at 10 uM preincubated for 15 mins followed by Kemptide substrate addition for 30 mins in presence of [gamma-32P]ATP by […] assay
Sequence of Aurora kinase A (Homo sapiens) (O14965 whole entry): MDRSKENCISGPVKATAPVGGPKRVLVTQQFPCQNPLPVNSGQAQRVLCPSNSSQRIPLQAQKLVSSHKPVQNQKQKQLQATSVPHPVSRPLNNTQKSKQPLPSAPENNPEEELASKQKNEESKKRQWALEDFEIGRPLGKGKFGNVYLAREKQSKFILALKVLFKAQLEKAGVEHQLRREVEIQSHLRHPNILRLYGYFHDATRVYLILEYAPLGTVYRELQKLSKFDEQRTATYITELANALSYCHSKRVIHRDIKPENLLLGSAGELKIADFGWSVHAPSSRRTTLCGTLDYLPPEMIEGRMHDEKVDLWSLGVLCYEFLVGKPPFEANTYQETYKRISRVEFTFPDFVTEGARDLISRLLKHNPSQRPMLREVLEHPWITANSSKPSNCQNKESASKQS

[15] = molecular target: Fibroblast growth factor receptor 3 (Homo sapiens) (UniProt P22607); assay: Inhibition of recombinant human FGFR3 expressed in insect Sf21 cells assessed as remaining activity at 10 uM preincubated for 15 mins followed by poly(Glu:Tyr) substrate addition for 30 mins in presence of [gamma-32P]ATP by […] assay
Sequence of Fibroblast growth factor receptor 3 (Homo sapiens) (P22607 23-806 limits assumed): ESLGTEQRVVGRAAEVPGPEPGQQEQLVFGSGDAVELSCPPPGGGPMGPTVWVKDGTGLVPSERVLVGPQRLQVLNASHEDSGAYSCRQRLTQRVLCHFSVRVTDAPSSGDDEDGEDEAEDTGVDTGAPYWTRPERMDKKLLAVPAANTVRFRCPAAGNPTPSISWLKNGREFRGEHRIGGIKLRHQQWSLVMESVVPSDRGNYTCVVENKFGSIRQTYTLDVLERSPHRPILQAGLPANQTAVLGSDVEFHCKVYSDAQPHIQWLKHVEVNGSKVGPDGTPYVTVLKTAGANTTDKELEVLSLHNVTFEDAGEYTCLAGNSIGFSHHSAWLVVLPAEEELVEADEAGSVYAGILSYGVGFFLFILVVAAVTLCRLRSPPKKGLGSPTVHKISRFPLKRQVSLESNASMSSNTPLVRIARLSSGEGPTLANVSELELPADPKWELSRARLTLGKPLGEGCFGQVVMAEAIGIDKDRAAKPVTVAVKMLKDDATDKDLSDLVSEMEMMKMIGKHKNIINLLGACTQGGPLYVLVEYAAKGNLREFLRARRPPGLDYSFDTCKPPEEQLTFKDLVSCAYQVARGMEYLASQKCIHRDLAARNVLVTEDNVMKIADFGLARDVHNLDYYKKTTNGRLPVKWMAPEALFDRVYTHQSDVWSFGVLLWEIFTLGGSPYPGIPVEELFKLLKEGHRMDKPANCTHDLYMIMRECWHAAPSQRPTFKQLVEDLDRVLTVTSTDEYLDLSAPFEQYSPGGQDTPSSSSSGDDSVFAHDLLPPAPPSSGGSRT

[16] = molecular target: Receptor tyrosine-protein kinase erbB-2 (Homo sapiens) (UniProt P04626); assay: Inhibition of recombinant human ERBB2 expressed in insect cells assessed as remaining activity at 10 uM preincubated for 15 mins followed by poly(Glu:Tyr) substrate addition for 30 mins in presence of [gamma-32P]ATP by […] assay
Sequence of Receptor tyrosine-protein kinase erbB-2 (Homo sapiens) (P04626 whole entry): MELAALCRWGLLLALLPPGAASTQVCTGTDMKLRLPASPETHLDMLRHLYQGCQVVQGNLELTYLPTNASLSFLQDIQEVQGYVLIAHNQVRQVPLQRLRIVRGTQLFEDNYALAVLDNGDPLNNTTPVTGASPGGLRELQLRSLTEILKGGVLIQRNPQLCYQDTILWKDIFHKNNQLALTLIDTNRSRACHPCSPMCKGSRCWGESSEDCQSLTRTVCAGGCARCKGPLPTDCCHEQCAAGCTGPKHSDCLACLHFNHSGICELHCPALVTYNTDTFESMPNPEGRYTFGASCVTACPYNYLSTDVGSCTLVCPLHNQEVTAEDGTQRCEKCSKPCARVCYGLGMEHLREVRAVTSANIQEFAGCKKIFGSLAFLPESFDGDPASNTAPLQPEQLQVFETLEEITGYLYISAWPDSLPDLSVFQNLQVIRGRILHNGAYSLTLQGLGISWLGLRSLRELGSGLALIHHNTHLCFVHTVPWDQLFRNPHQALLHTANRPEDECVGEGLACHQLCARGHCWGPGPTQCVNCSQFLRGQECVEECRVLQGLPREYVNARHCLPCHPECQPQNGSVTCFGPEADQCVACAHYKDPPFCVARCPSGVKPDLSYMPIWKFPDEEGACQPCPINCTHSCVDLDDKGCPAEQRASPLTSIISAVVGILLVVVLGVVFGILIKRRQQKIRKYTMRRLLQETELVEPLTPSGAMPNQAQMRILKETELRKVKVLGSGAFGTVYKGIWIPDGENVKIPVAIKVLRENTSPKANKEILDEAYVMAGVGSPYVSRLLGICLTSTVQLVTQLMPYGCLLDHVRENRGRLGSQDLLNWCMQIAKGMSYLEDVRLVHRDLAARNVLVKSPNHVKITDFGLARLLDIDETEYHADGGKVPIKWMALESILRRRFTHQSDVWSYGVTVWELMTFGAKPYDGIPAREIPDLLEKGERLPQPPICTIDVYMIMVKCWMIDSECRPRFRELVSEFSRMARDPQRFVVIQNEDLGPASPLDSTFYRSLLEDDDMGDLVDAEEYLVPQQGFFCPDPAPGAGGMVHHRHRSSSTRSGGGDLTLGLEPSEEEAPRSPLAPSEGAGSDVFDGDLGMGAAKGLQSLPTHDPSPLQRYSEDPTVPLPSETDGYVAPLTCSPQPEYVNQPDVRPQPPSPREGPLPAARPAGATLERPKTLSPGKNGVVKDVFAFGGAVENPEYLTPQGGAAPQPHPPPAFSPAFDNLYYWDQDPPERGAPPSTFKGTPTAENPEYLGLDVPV

[17] = molecular target: Serine-protein kinase ATM (Homo sapiens) (UniProt Q13315); assay: Inhibition of human ATM assessed as remaining activity at 10 uM preincubated for 15 mins followed by substrate addition for 30 mins in presence of [gamma-32P]ATP by […] assay
[18] = molecular target: Dual specificity mitogen-activated protein kinase kinase 7 (Homo sapiens) (UniProt O14733); assay: Inhibition of human MKK7beta assessed as remaining activity at 10 uM in presence of [gamma-32P]ATP by […] assay
[19] = Metabolic stability in human liver microsomes assessed as compound remaining at 1 uM after 30 mins in presence of NADPH by HPLC-MS analysis; format: ADME; conditions: read-out: Stability
[20] = molecular target: Tyrosine-protein kinase Lyn (Homo sapiens) (UniProt P07948); assay: Inhibition of LYN (unknown origin) assessed as remaining activity at 10 uM in presence of [gamma-32P]ATP by […] assay
Sequence of Tyrosine-protein kinase Lyn (Homo sapiens) (P07948 2-512 limits assumed): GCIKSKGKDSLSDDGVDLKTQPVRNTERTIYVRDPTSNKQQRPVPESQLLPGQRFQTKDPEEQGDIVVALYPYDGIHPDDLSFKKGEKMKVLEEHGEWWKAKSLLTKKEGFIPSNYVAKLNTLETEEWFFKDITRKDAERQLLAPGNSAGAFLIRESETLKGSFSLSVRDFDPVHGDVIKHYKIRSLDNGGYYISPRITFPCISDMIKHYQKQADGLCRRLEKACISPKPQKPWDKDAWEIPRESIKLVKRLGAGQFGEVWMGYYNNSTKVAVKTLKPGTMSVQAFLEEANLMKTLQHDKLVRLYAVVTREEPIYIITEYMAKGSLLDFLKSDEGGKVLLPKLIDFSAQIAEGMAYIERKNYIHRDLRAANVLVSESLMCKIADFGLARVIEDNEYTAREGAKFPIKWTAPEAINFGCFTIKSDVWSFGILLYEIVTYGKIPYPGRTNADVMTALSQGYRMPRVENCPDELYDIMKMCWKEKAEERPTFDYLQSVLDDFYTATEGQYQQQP

[21] = Cmax in Sprague-Dawley rat at 30 mg/kg, po by LC/MS/MS analysis; format: ADME, organism-based; set-up: dose 30 mg/kg, route oral; conditions: in vivo
[22] = molecular target: Vascular endothelial growth factor receptor 3 (Homo sapiens) (UniProt P35916); assay: Inhibition of recombinant human FLT4 expressed in insect cells assessed as remaining activity at 10 uM preincubated for 15 mins followed by poly(Glu:Tyr) substrate addition for 30 mins in presence of [gamma-32P]ATP by […] assay
[23] = molecular target: Mitogen-activated protein kinase 13 (Homo sapiens) (UniProt O15264); assay: Inhibition of human SAPK4 assessed as remaining activity at 10 uM in presence of [gamma-32P]ATP by […] assay
Sequence of Mitogen-activated protein kinase 13 (Homo sapiens) (O15264 whole entry): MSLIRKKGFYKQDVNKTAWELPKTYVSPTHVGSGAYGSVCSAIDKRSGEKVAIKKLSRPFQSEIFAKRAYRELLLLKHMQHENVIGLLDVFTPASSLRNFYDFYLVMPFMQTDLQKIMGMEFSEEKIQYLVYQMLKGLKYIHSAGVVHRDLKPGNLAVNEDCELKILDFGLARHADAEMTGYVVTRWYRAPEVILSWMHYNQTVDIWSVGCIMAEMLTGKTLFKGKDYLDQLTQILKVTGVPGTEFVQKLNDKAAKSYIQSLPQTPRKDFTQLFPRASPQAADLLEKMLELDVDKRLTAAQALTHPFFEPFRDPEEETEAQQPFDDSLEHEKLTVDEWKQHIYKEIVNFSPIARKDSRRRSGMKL

[24] = Elimination half life in Sprague-Dawley rat at 30 mg/kg, po by LC/MS/MS analysis; format: ADME, organism-based; conditions: in vivo, read-out: beta t1/2 (converted)

CNCCOc1ccc(-c2sc3nc(-c4cccs4)nc(NN4C(=O)C=C(C)C4=O)c3c2C)cc1.Cl
Activity [1]: 101% | Activity [2]: 53% | Activity [3]: 44% | Activity (Angiopoietin-1 receptor): 16% | Activity [4]: 52% | Activity [5]: 70% | Activity [6]: 115% | Activity [7]: 75% | Activity [8]: 96% | Activity [9]: 42% | remaining at 0.5 h, 1 µM [10]: 67.1% | Vd [11]: 8.22 L/kg | IC50 [12]: 10.2 nM | AUC(0-inf) [13]: 2170 ng·h/mL | Activity [14]: 67% | Activity [15]: 72% | Activity [16]: 89% | Activity [17]: 30% | Activity [18]: 111% | remaining at 0.5 h, 1 µM [19]: 79.8% | Activity [20]: 58% | Cmax [21]: 420 ng/mL | Activity [22]: 24% | Activity [23]: 93% | half-life [24]: 15.2 h
